The test deals with full length NS3/4a (Hepatitis C virus genotype 1b (isolate BK) (HCV), UniProt P26663). The test can be described thus: NS3 Protease Assay (Example A), FRET-based. The test is classed as biochemical. An outline of the steps:
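Full-length NS3/4a, made in-house, with an NS4A/B-derived peptide substrate carrying QXL520 quencher and 5-FAMsp fluorophore. Buffer 50 mM Tris pH8, 20 mM DTT, 1% CHAPS, 10% glycerol, 5% DMSO. Fluorescence followed 30 min at room temperature; IC50 from initial rates of replicate curves.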

Where [1] appears, read: HCV NS3 protease assay, full length NS3/4a, read-out: Assay A IC50 (μM) average.
[2] abbreviates: read-out: IC50 against the protease activity of the full length NS3/4a.
Setting [3] is: stated as IC50 less than 30 μM or at least 40% inhibition at a concentration of 100 μM, read-out: IC50 against the protease activity of the full length NS3/4a.

This note sets out measurements from patent US9145354B2, “Pharmaceutical compounds” (priority 2011, dated 2015).

Read-outs that look alike come from different tables or passages of the source. Some results are limits rather than exact numbers.

Sequence of full length NS3/4a (P26663 1027-1657): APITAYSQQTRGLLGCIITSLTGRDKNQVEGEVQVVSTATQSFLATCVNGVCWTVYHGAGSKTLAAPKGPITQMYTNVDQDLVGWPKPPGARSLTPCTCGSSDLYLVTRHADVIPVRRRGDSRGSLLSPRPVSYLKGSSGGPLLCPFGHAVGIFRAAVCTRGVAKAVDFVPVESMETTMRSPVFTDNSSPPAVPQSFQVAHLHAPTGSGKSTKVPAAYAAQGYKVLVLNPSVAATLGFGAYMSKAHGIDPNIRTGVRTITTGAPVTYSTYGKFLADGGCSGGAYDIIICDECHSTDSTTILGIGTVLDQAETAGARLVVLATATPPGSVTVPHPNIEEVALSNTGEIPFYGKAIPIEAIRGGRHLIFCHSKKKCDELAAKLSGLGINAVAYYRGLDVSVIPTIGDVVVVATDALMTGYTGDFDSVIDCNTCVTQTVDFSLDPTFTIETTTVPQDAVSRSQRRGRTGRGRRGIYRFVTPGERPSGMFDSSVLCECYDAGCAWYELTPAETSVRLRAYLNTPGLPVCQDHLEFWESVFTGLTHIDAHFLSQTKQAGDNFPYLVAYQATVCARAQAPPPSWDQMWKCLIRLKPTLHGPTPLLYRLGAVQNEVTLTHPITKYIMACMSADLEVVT

Take `CC[C@@H](N)c1ccc(Cl)c(C(=O)c2ccc(NC)nc2)c1F` [Example 36, 5-({3-[(1R)-1-aminopropyl]-6-chloro-2-fluorophenyl}carbonyl)-N-methylpyridin-2-amine]: the IC50 reads like this: under setting [1], 0.71 µM; under setting [2], below 1 µM.

For `CC[C@@H](N)c1ccc(Cl)c(C(=O)c2ccc(C#N)c(OC)c2)c1F` [Example 222, 4-({3-[(1R)-1-aminopropyl]-6-chloro-2-fluorophenyl}carbonyl)-2-methoxybenzonitrile], at 0.03 µM the inhibition was 45%. Further, the IC50 under setting [3] was below 30 µM.

`CC[C@@H](N[C@H](C)CC(N)=O)c1ccc(Cl)c(C(=O)c2cccc(C#N)c2)c1F` [Example 102, (3R)-3-{[(1R)-1-{4-chloro-3-[(3-cyanophenyl)carbonyl]-2-fluorophenyl}propyl]amino}-butanamide]: the IC50 was 1.2 µM under setting [1] and 1 to 5 µM under setting [2].

As to `CC[C@@H](N)c1ccc(F)c(C(=O)c2ccccc2)c1F` [Example 43, (1R)-1-(3-benzoyl-2,4-difluorophenyl)propan-1-amine], the IC50 under setting [1] came out at 0.74 µM and the IC50 under setting [2] is below 1 µM.

On to `CC[C@@H](N[C@@H](C)CC(N)=O)c1ccc(Cl)c(C(=O)c2ccc(NC)nc2)c1F` [Example 207, (3S)-3-{[(1R)-1-(4-chloro-2-fluoro-3-{[6-(methylamino)pyridin-3-yl]carbonyl}phenyl)propyl]amino}butanamide], for which the IC50 is, setting by setting: under setting [1], 0.37 µM; under setting [2], below 1 µM.

`CC[C@@H](N)c1ccc(Cl)c(C(=O)c2cccnc2)c1F` [Example 2, (1R)-1-{4-chloro-2-fluoro-3-[(pyridin-3-yl)carbonyl]phenyl}-propan-1-amine]: the IC50 under setting [1] was determined as 1.4 µM and the IC50 under setting [2] is 1 to 5 µM.

With `C[C@H](CC(N)=O)N[C@@H](c1ccc(Cl)c(C(=O)c2cccnc2)c1F)C1CC1` [Example 118, (3R)-3-{[(R)-{4-chloro-2-fluoro-3-[(pyridin-3-yl)carbonyl]phenyl}(cyclopropyl)methyl]amino}-butanamide], at 3 µM the inhibition was 41%. For the same compound, the IC50 under setting [3] was below 30 µM.

`CC[C@H](NC(=O)CCN)c1ccc(Cl)c(C(=O)c2ccc(N)nc2)c1F` [Example 303]: the IC50 reads like this: under setting [1], 0.065 µM; under setting [2], below 1 µM.

With `C[C@H](CC(N)=O)N[C@@H](c1ccc(Cl)c(C(=O)c2ccc(N)c(Cl)c2)c1F)C1CC1` [Example 202, (3R)-3-{[(R)-{3-[(4-amino-3-chlorophenyl)carbonyl]-4-chloro-2-fluorophenyl}(cyclopropyl)methyl]amino}butanamide], the IC50 under setting [1] is 0.31 µM.

In the case of `CC[C@@H](N[C@H](C)c1cnc[nH]1)c1ccc(Cl)c(C(=O)c2cccnc2)c1F` [Example 304, [(1R)-1-{4-chloro-2-fluoro-3-[(pyridin-3-yl)carbonyl]phenyl}propyl] [(1R)-1-(1H-imidazol-5-yl)ethyl]amine], the IC50 under setting [1] was 4.7 µM and the IC50 under setting [2] was in the range of 1 to 5 µM.

Consider `CC[C@@H](N[C@H](C)CC(N)=O)c1ccc(Cl)c(C(=O)c2ccc(=O)[nH]c2)c1F` [Example 148, (3R)-3-{[(1R)-1-{4-chloro-2-fluoro-3-[(6-oxo-1,6-dihydropyridin-3-yl)carbonyl]-phenyl}propyl]amino}-butanamide], for which the inhibition at 10 µM was 43%. Further, the IC50 under setting [3] was below 30 µM.

Turning to `CC[C@@H](N)c1ccc(Cl)c(C(=O)c2cnc(NC)cn2)c1F` [Example 57, 5-({3-[(1R)-1-aminopropyl]-6-chloro-2-fluorophenyl}carbonyl)-N-methylpyrazin-2-amine], the IC50 under setting [1] was 4.6 µM and the IC50 under setting [2] fell in the range of 1 to 5 µM.

For the compound `CC[C@@H](N[C@H]1CCOC1)c1ccc(Cl)c(C(=O)c2cccnc2)c1F` [Example 293, (3S)-N-[(1R)-1-{4-chloro-2-fluoro-3-[(pyridin-3-yl)carbonyl]phenyl}propyl] oxolan-3-amine], at 10 µM the inhibition was 11%.

Turning to `CC[C@@H](N[C@@H](C)CC(N)=O)c1ccc(OC)c(C(=O)c2ccc(F)cc2)c1F` [Example 200, (3S)-3-{[(1R)-1-{2-fluoro-3-[(4-fluorophenyl)carbonyl]-4-methoxyphenyl}propyl]amino} butanamide], the IC50 under setting [1] turned out to be 0.078 µM and the IC50 under setting [2] is below 1 µM.

`COc1ccc([C@H](N[C@H](C)CC(N)=O)C2CC2)c(F)c1C(=O)c1cccc(F)c1` [Example 223, (3R)-3-{[(R)-cyclopropyl({2-fluoro-3-[(3-fluorophenyl)carbonyl]-4-methoxyphenyl})methyl]amino}butanamide]: the IC50 runs as follows: under setting [1], 3.1 µM; under setting [2], 1 to 5 µM.

In turn, `CC[C@@H](N[C@H](C)CC(N)=O)c1ccc(Cl)c(C(=O)c2cccc(F)c2)c1F` [Example 96, (3R)-3-{[(1R)-1-{4-chloro-2-fluoro-3-[(3-fluorophenyl)-carbonyl]phenyl}propyl]amino}butanamide] gave an inhibition at 0.3 µM (@ 0.3 uM) of 58%.

Take `CC[C@@H](N)c1ccc(Cl)c(C(=O)c2ccns2)c1F` [Example 16, (1R)-1-{4-chloro-2-fluoro-3-[(1,2-thiazol-5-yl)carbonyl]phenyl}propan-1-amine]: the IC50 under setting [1] stood at 0.47 µM and the IC50 under setting [2] is below 1 µM.

In turn, `CC[C@@H](N[C@H](C)CC(N)=O)c1ccc(Cl)c(C(=O)c2ccc(N(C)C)nc2)c1F` [Example 137, (3R)-3-{[(1R)-1-(4-chloro-3-{[6-(dimethylamino)pyridin-3-yl]carbonyl}-2-fluorophenyl)propyl]amino}butanamide] returned an inhibition at 30 µM of 60%. Further, under setting [3], the IC50 is below 30 µM.

`CC[C@@H](N[C@H](C)CC(=O)NCCN)c1ccc(Cl)c(C(=O)c2ccccc2)c1F` [Example 87, (3R)—N-(2-Aminoethvl)-3-{[(1R)-1-(3-benzoyl-4-chloro-2-fluorophenyl)propyl]-amino}butanamide]: the inhibition at 0.01 µM (@ 0.01 uM) was 54%.

As to `CC[C@@H](N[C@H](C)CC(N)=O)c1ccc(OC)c(C(=O)c2cccc(C#N)c2)c1F` [Example 277, (3R)-3-{[(1R)-1-{3-[(3-cyanophenyl)carbonyl]-2-fluoro-4-methoxyphenyl}propyl]amino}butanamide], under setting [1], the IC50 is 0.73 µM.

Regarding `CC[C@H](N[C@@H](C)CC(N)=O)c1ccc(Cl)c(C(=O)c2ccccc2)c1F` [Example 86, (3S)-3-{[(1S)-1-(3-benzoyl-4-chloro-2-fluorophenyl)-propyl]amino}butanamide], the IC50 under setting [1] was 1 µM and the IC50 under setting [2] lay within 1 to 5 µM.

Regarding `CC[C@@H](N)c1ccc(C)c(C(=O)c2ccccc2)c1F` [Example 39, (1R)-1-(3-benzoyl-2-fluoro-4-methylphenyl)propan-1-amine], the IC50 reads like this: under setting [1], 0.73 µM; under setting [2], below 1 µM.

Turning to `CC[C@H](N)c1ccc(Cl)c(C(=O)c2cccnc2)c1F` [Example 26, (1S)-1-{4-chloro-2-fluoro-3-[(pyridin-3-yl)carbonyl]phenyl}propan-1-amine], the IC50 is 0.63 µM under setting [1] and below 1 µM under setting [2].

As to `CC[C@@H](N)c1ccc(Cl)c(C(=O)c2ccc[n+]([O-])c2)c1F` [Example 25, [3-((R)-1-Amino-propyl)-6-chloro-2-fluoro-phenyl]-(1-oxy-pyridin-3-yl)-methanone], the inhibition at 30 µM turned out to be 59%. Besides, the IC50 under setting [3] was below 30 µM.

For the compound `C[C@@H](CC(N)=O)N[C@@H](c1ccc(Cl)c(C(=O)c2ccc(C#N)cc2)c1F)C1CC1` [Example 129, (3S)-3-{[(R)-{4-chloro-3-[(4-cyanophenyl)-carbonyl]-2-fluorophenyl}(cyclo-propyl)methyl]amino}-butanamide], the inhibition at 0.03 µM turned out to be 36%.

`CC[C@@H](N[C@@H](C)CC(N)=O)c1ccc(OC)c(C(=O)c2cccc(F)c2)c1F` [Example 212, (3S)-3-{[(1R)-1-{2-fluoro-3-[(3-fluorophenyl)carbonyl]-4-methoxyphenyl}propyl]amino}butanamide]: the IC50 under setting [1] is 0.094 µM.

Regarding `CC[C@@H](N)c1ccc(Cl)c(C(=O)c2ccc(N(C)C)nc2)c1F` [Example 35, 5-({3-[(1R)-1-aminopropyl]-6-chloro-2-fluorophenyl}carbonyl)-N,N-dimethylpyridin-2-amine], the inhibition at 10 µM worked out at 30%.

Consider `CC[C@@H](N[C@H](C)CC(N)=O)c1ccc(Cl)c(C(=O)c2ccc(-n3cc(CO)cn3)nc2)c1F` [Example 160, (3R)-3-{[(1R)-1-[4-chloro-2-fluoro-3-({6-[4-(hydroxymethyl)-1H-pyrazol-1-yl]pyridin-3-yl}carbonyl)phenyl]-propyl]amino}-butanamide], for which the IC50 is 4.2 µM under setting [1] and 1 to 5 µM under setting [2].

Take `C[C@H](CC(N)=O)N[C@@H](c1ccc(Cl)c(C(=O)c2ccc(N)c(C#N)c2)c1F)C1CC1` [Example 190, (3R)-3-{[(R)-{3-[(4-amino-3-cyanophenyl)carbonyl]-4-chloro-2-fluorophenyl}(cyclopropyl)methyl]amino}butanamide]: the IC50 under setting [1] was found to be 0.37 µM and the IC50 under setting [3] is below 30 µM.

As to `CC[C@H](NC(=O)C1CCNC1)c1ccc(Cl)c(C(=O)c2cccnc2)c1F` (stereo partly drawn) [Example 295, N-[(1S)-1-{4-chloro-2-fluoro-3-[(pyridin-3-yl)carbonyl]phenyl}propyl] pyrrolidine-3-carboxamide], 3 µM produced 38% inhibition.

Consider `CC[C@@H](N)c1ccc(Cl)c(C(=O)c2ccc(COC(C)=O)cc2)c1F` [Example 49, [4-({3-[(1R)-1-aminopropyl]-6-chloro-2-fluorophenyl}carbonyl)phenyl]methyl acetate], for which the IC50 was 0.15 µM under setting [1] and below 1 µM under setting [2].

For the compound `CC[C@@H](N[C@H](C)c1cn[nH]c1)c1ccc(Cl)c(C(=O)c2cccnc2)c1F` [Example 300, [(1R)-1-{4-chloro-2-fluoro-3-[(pyridin-3-yl)carbonyl]phenyl}propyl] [(1R)-1-(1H-pyrazol-4-yl)ethyl]amine], at 30 µM the inhibition was 48%. Further, the IC50 under setting [3] was below 30 µM.
